What was measured:
[1] = target: T1, human liver IPdR-aldehyde oxidase (Homo sapiens, UniProt Q06278); details: low concentrations
T1 sequence (Q06278 1-1338): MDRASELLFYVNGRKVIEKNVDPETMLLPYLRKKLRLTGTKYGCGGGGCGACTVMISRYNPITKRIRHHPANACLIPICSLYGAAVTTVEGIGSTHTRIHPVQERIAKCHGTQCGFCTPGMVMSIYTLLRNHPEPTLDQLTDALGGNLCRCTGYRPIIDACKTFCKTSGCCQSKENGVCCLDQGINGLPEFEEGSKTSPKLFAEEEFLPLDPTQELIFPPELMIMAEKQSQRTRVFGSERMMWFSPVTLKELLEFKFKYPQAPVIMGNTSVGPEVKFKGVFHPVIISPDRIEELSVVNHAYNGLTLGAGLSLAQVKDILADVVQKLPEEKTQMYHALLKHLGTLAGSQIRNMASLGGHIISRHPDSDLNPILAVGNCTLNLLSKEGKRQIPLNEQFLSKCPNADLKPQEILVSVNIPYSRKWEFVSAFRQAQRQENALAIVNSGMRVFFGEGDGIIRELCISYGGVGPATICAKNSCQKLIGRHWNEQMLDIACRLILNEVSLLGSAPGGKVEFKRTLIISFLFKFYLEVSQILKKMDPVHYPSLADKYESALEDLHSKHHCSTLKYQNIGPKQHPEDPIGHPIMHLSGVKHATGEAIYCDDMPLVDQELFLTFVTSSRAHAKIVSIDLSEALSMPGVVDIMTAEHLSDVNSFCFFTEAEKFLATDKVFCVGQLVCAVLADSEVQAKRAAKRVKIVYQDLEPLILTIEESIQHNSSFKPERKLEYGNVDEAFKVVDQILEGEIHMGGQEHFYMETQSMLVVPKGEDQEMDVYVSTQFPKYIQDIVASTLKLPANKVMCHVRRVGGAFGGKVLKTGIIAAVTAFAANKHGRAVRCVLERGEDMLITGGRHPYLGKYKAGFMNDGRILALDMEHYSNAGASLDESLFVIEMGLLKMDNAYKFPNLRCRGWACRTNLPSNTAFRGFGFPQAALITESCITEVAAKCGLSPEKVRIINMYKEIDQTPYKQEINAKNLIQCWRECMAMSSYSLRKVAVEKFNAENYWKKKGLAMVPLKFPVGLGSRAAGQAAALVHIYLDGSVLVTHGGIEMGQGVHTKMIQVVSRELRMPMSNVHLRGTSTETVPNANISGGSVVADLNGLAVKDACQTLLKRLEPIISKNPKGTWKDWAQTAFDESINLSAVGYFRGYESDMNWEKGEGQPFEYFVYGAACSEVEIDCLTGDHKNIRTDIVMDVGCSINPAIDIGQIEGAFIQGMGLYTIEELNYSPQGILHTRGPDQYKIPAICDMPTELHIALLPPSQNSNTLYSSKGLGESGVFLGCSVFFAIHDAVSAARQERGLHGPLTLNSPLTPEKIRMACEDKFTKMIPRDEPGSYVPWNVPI

[2] = system: IPdR oxidase activity of human intestine cytosol
[3] = system: locally advanced rectal cancer; details: cited from earlier work
[4] = system: head & neck cancers; details: cis-platin+definitive RT, cCR achieved; cited from earlier work

| Structure (SMILES) | effect on human liver IPdR-aldehyde oxidase [1] | effect on human small intestine IPdR oxidase activity [2] | further results |
| --- | --- | --- | --- |
| Oc1ncnc2[nH]ncc12 [allopurinol] | not | not inhibited |  |
| CCCCCOC(=O)Nc1nc(=O)n([C@@H]2O[C@H](C)[C@@H](O)[C@H]2O)cc1F [capecitabine] |  |  | pCR rate ([3]; neoadjuvant capecitabine+RT, Stage III rectal patients): 10-15% |
| N.N.[Cl][Pt][Cl] [cis-platin, cis-diamminedichloroplatinum II] |  |  | cure rate [4]: approximately 60% |
| COc1ccc(C=O)cc1O [isovanillin] | inhibited | not inhibited |  |
| CC1=CC(=O)c2ccccc2C1=O [menadione] |  | stimulated |  |
| O=C1[O][Pt]2([NH][C@@H]3CCCC[C@H]3[NH]2)[O]C1=O [oxaliplatin] |  |  | effect on pCR rate when added during pre-operative RT+FP ([3]; with increased normal tissue complications): without any improvement in pCR rate |

Source: patent publication US11058702B2 (EMEK, Inc., priority 2014, dated 2021)
